Assay results published in US10201531B2, “Indazolyl-oxo-isothiazole compounds” (MOCHIDA PHARMACEUTICAL CO., LTD., priority 2015, dated 2019).

Tested on: Nrf2
Experiment: Evaluation of Nrf2 activation ability (Nrf2d-LacZ / Keap1 HEK293 reporter, Beta-Glo luminescence)
Assay type: cell-based, human
Description: HEK293 cells constantly expressing Nrf2d-LacZ (human Nrf2 degron region fused to LacZ; Hirotsu et al, Genes to Cell, Vol. 16, pp. 406-415 (2011)) and human Keap1 were seeded 7,000 cells/27 μl/well on 384-well plates (Corning 384 Well Flat Clear Bottom White Polystyrene TC-Treated Microplates, Cat. #3707), and cultured overnight at 5% CO2, 37° C. in DMEM medium containing 10% FBS, 100 U/mL penicillin and 100 μg/mL streptomycin. 3 μL/well of a 0.1% DMSO solution of the compound of the invention was added to the cells, which were then cultured for 3 hours at 5% CO2, 37° C. Beta-Glo® reagent (Promega, Beta-Glo Assay System, Cat. #E4740) was added 15 μL/well and incubated for 1 hour at room temperature, and luminescence intensity was measured with a luminometer. Using CDDO-Im as a standard, Nrf2 activation ability was calculated given 100% as the luminescence under stimulus with 100 nM CDDO-Im.

[1] = Pharmacological Test Example 1, rated A/B/C
[2] = rated A/B/C, Pharmacological Test Example 1

| Compound | EC50 [1] [nM] | EC50 [2] [nM] |
| --- | --- | --- |
| [O-][s+]1nc(O)cc1-n1cc(-c2ccc(Oc3ccccc3)cc2)cn1 (centres unmarked) [Example 333] | < 1000 | – |
| [O-][s+]1nc(O)cc1-n1ncc2cc(-c3cncc(N4CCCCC4)c3)ccc21 (centres unmarked) [Example 153] | – | < 1000 |
| CN1CCOc2cc(-c3ccc4c(cnn4-c4cc(O)n[s+]4[O-])c3)ncc21 (centres unmarked) [Example 222] | – | < 1000 |
| [O-][s+]1nc(O)cc1-n1cc2c(n1)CN(Cc1cccc(Oc3ccccc3)c1)C2 (centres unmarked) [Example 277] | – | 1000 to 5000 |
| COc1ccc(-c2cnn(-c3cc(O)n[s+]3[O-])c2)c(C)n1 (centres unmarked) [Example 402] | 1000 to 5000 | – |
| [O-][s+]1nc(O)cc1-n1cc(C2=Cc3ccccc3C2)cn1 (centres unmarked) [Example 345] | < 1000 | – |
| Cn1c(=O)oc2cc(-c3cnn(-c4cc(O)n[s+]4[O-])c3)ccc21 (centres unmarked) [Example 424] | 5000 to 10000 | – |
| COc1nc(Cl)ccc1-c1cnn(-c2cc(O)n[s+]2[O-])c1 (centres unmarked) [Example 435] | < 1000 | – |
| [O-][s+]1nc(O)cc1-n1ncc2ccncc21 (centres unmarked) [Example 231] | – | 5000 to 10000 |
| COc1ccc2c(cnn2-c2cc(O)n[s+]2[O-])c1 (centres unmarked) [Example 24] | – | 1000 to 5000 |
| [O-][s+]1nc(O)cc1-n1ncc2ccc(Cl)cc21 (centres unmarked) [Example 31] | – | 1000 to 5000 |
| [O-][s+]1nc(O)cc1-n1cc(CCc2ccccc2)cn1 (centres unmarked) [Example 307] | – | < 1000 |
| [O-][s+]1nc(O)cc1-n1ncc2ccc(Br)cc21 (centres unmarked) [Example 7] | – | 1000 to 5000 |
| Cc1cncc(-c2ccc3c(cnn3-c3cc(O)n[s+]3[O-])c2)c1 (centres unmarked) [Example 49] | – | < 1000 |
| [O-][s+]1nc(O)cc1-n1cc(-c2ccc(F)nc2)cn1 (centres unmarked) [Example 443] | 1000 to 5000 | – |
| COc1c(-c2cnc3c(c2)OCCN3C)ccc2c1cnn2-c1cc(O)n[s+]1[O-] (centres unmarked) [Example 211] | – | < 1000 |
| Cc1ccc2c(cnn2-c2cc(O)n[s+]2[O-])c1 (centres unmarked) [Example 25] | – | 5000 to 10000 |
| COc1cc(-c2ccc3c(cnn3-c3cc(O)n[s+]3[O-])c2)cnc1N(C)C (centres unmarked) [Example 173] | – | < 1000 |
| COc1cc(C2CC2)c2cnn(-c3cc(O)n[s+]3[O-])c2c1 (centres unmarked) [Example 183] | – | 1000 to 5000 |
| [O-][s+]1nc(O)cc1-n1ncc2c(C3=CCC(F)(F)CC3)cccc21 (centres unmarked) [Example 93] | – | 1000 to 5000 |
| COc1cc(-c2ccnc(N3CCCC3)c2)c2cnn(-c3cc(O)n[s+]3[O-])c2c1 (centres unmarked) [Example 181] | – | 1000 to 5000 |

| Compound | EC50 [1] [nM] | EC50 [2] [nM] |
| --- | --- | --- |
| COc1cccc2c1cnn2-c1cc(O)n[s+]1[O-] (centres unmarked) [Example 191] | – | 1000 to 5000 |
| CC(C)(C)OC(=O)N1CCc2c(cnn2-c2cc(O)n[s+]2[O-])C1 (centres unmarked) [Example 247] | – | 1000 to 5000 |
| [O-][s+]1nc(O)cc1-n1ccc(-c2cccc(Br)c2)n1 (centres unmarked) [Example 286] | – | < 1000 |
| COc1ccc(-c2cnn(-c3cc(O)n[s+]3[O-])c2)cc1 (centres unmarked) [Example 389] | < 1000 | – |
| CN1CCOc2cc(-c3ccc4c(c3)c(Cl)nn4-c3cc(O)n[s+]3[O-])cnc21 (centres unmarked) [Example 169] | – | < 1000 |
| [O-][s+]1nc(O)cc1-n1cc2c(n1)CN(Cc1ccccc1)C2 (single isomer, unassigned) [Example 255] | – | 1000 to 5000 |
| [O-][s+]1nc(O)cc1-n1ncc2cc(-c3cccc(F)c3)ccc21 (centres unmarked) [Example 84] | – | < 1000 |
| COc1nc(-c2ccnc(N3CCCC3)c2)ccc1-c1cnn(-c2cc(O)n[s+]2[O-])c1 (centres unmarked) [Example 454] | < 1000 | – |
| [O-][s+]1nc(O)cc1-n1ncc2ccc(-c3ccc(C4CC4)nc3)cc21 (centres unmarked) [Example 111] | – | 1000 to 5000 |
| O=S(=O)(c1cccc(COc2ccc(-c3cnn(-c4cc(O)n[s+]4[O-])c3)cc2)c1)N1CCCCC1 (centres unmarked) [Example 366] | 1000 to 5000 | – |
| [O-][s+]1nc(O)cc1-n1ncc2c1CCN(Cc1ccccc1)C2 (centres unmarked) [Example 252] | – | 1000 to 5000 |
| COc1cc(-c2ccc(N3CCCC3)nc2)c2cnn(-c3cc(O)n[s+]3[O-])c2c1 (centres unmarked) [Example 175] | – | < 1000 |
| Cc1cncc(-c2cnn(-c3cc(O)n[s+]3[O-])c2)c1 (centres unmarked) [Example 401] | 5000 to 10000 | – |
| O=C1CCCN1c1ccc(-c2ccc3c(cnn3-c3cc(O)n[s+]3[O-])c2)cn1 (centres unmarked) [Example 186] | – | < 1000 |
| [O-][s+]1nc(O)cc1-n1ncc2c1CCN(CC1CCCCC1)C2 (single isomer, unassigned) [Example 257] | – | 1000 to 5000 |
| [O-][s+]1nc(O)cc1-n1cc(-c2cccc(Br)c2)cn1 (centres unmarked) [Example 290] | – | < 1000 |
| [O-][s+]1nc(O)cc1-n1ncc2cc(-c3cnc4c(c3)OCCCCN4)ccc21 (centres unmarked) [Example 206] | – | < 1000 |
| [O-][s+]1nc(O)cc1-n1cc(-c2cnc(C(F)(F)F)cn2)cn1 (centres unmarked) [Example 415] | 1000 to 5000 | – |
| [O-][s+]1nc(O)cc1-n1cc(C2=Cc3ccccc3C2)cn1 (centres unmarked) [Example 384] | < 1000 | – |
| COc1cc(-c2ccnc(N3CCCCC3)c2)c2cnn(-c3cc(O)n[s+]3[O-])c2c1 (centres unmarked) [Example 176] | – | 1000 to 5000 |
| [O-][s+]1nc(O)cc1-n1ncc2c(-c3ccccc3)cccc21 (centres unmarked) [Example 79] | – | 1000 to 5000 |

| Compound | EC50 [1] [nM] | EC50 [2] [nM] |
| --- | --- | --- |
| [O-][s+]1nc(O)cc1-n1ncc2cc(-c3cccnc3)ccc21 (centres unmarked) [Example 38] | – | < 1000 |
| Cc1ccnc(-c2cnn(-c3cc(O)n[s+]3[O-])c2)n1 (centres unmarked) [Example 433] | 1000 to 5000 | – |
| COc1cncc(-c2cnn(-c3cc(O)n[s+]3[O-])c2)c1 (centres unmarked) [Example 398] | 1000 to 5000 | – |
| [O-][s+]1nc(O)cc1-n1ncc2cc(Cl)ccc21 (centres unmarked) [Example 12] | – | < 1000 |
| [O-][s+]1nc(O)cc1-n1ncc2cc(-c3cccc(CN4CCOCC4)c3)ccc21 (centres unmarked) [Example 77] | – | < 1000 |
| [O-][s+]1nc(O)cc1-n1cc(I)cn1 (centres unmarked) [Example 287] | – | 1000 to 5000 |
| [O-][s+]1nc(O)cc1-n1cc(C2=Cc3ccccc3C2)cn1 (centres unmarked) [Example 394] | 1000 to 5000 | – |
| CC(=O)Nc1ccc(-c2ccc3c(cnn3-c3cc(O)n[s+]3[O-])c2)cc1 (centres unmarked) [Example 66] | – | 1000 to 5000 |
| [O-][s+]1nc(O)cc1-n1cc(-c2cc(C(F)(F)F)cc(C(F)(F)F)c2)cn1 (centres unmarked) [Example 368] | < 1000 | – |
| Cc1nn(-c2cc(O)n[s+]2[O-])c(C)c1I (centres unmarked) [Example 305] | – | 1000 to 5000 |
| CC(C)(C)OC(=O)N1CCC(c2ccc3c(cnn3-c3cc(O)n[s+]3[O-])c2)CC1 (centres unmarked) [Example 62] | – | < 1000 |
| Cn1cc2c(-c3ccc4c(cnn4-c4cc(O)n[s+]4[O-])c3)cccc2n1 (centres unmarked) [Example 76] | – | 1000 to 5000 |
| [O-][s+]1nc(O)cc1-n1ncc2cc(Oc3ccccc3)ccc21 (centres unmarked) [Example 148] | – | 1000 to 5000 |
| [O-][s+]1nc(O)cc1-n1ncc2cc(-c3ccc(Oc4ccccc4)cc3)ccc21 (centres unmarked) [Example 74] | – | < 1000 |
| [O-][s+]1nc(O)cc1-n1ncc2ccc(-c3ccccc3)cc21 (centres unmarked) [Example 78] | – | 1000 to 5000 |
| [O-][s+]1nc(O)cc1-n1ncc2cc(-c3ccc(N4CCCC4)cn3)ccc21 (centres unmarked) [Example 139] | – | < 1000 |
| Cc1cccc2c1cnn2-c1cc(O)n[s+]1[O-] (centres unmarked) [Example 23] | – | 1000 to 5000 |
| [O-][s+]1nc(O)cc1-n1ncc2cc(-c3cnc(N4CCCCC4)cn3)ccc21 (centres unmarked) [Example 140] | – | < 1000 |
| [O-][s+]1nc(O)cc1-n1cc(-c2cnccn2)cn1 (centres unmarked) [Example 428] | 5000 to 10000 | – |
| CN1c2ncc(-c3ccc4c(cnn4-c4cc(O)n[s+]4[O-])c3)cc2OCC1(C)C (centres unmarked) [Example 213] | – | < 1000 |
| COc1cccc(-c2cnn(-c3cc(O)n[s+]3[O-])c2)c1 (centres unmarked) [Example 388] | < 1000 | – |

| Compound | EC50 [1] [nM] | EC50 [2] [nM] |
| --- | --- | --- |
| O=c1[nH]ccc2cc(-c3ccc4c(cnn4-c4cc(O)n[s+]4[O-])c3)ccc12 (centres unmarked) [Example 64] | – | 1000 to 5000 |
| COc1cc(Br)c2cnn(-c3cc(O)n[s+]3[O-])c2c1 (centres unmarked) [Example 9] | – | 1000 to 5000 |
| Cn1ccc(-c2ccc3c(cnn3-c3cc(O)n[s+]3[O-])c2)n1 (centres unmarked) [Example 226] | – | < 1000 |
| CN1CCOc2ncc(-c3ccc4c(cnn4-c4cc(O)n[s+]4[O-])c3)cc21 (centres unmarked) [Example 165] | – | 1000 to 5000 |
| Cc1cncc(-c2cnn(-c3cc(O)n[s+]3[O-])c2)n1 (centres unmarked) [Example 416] | 1000 to 5000 | – |
| CN1C(=O)COc2cc(-c3ccc4c(cnn4-c4cc(O)n[s+]4[O-])c3)cnc21 (centres unmarked) [Example 197] | – | < 1000 |
| COc1cc(-c2cncc(C)c2)c2cnn(-c3cc(O)n[s+]3[O-])c2c1 (centres unmarked) [Example 167] | – | 1000 to 5000 |
| [O-][s+]1nc(O)cc1-n1cc(-c2cnc3ccccc3n2)cn1 (centres unmarked) [Example 408] | < 1000 | – |
| Cn1cc(-c2ccc3c(cnn3-c3cc(O)n[s+]3[O-])c2)cn1 (centres unmarked) [Example 50] | – | < 1000 |
| [O-][s+]1nc(O)cc1-n1cc(-c2cccc3ccccc23)cn1 (centres unmarked) [Example 341] | 1000 to 5000 | – |
| Cc1cnc(-c2cnn(-c3cc(O)n[s+]3[O-])c2)cn1 (centres unmarked) [Example 413] | 1000 to 5000 | – |
| CC1(C)C(=O)N(CC2CC2)c2ccc(-c3cnn(-c4cc(O)n[s+]4[O-])c3)cc21 (centres unmarked) [Example 430] | 1000 to 5000 | – |
| COCC1CCCN1c1ccc(-c2ccc3c(cnn3-c3cc(O)n[s+]3[O-])c2)cn1 (centres unmarked) [Example 198] | – | < 1000 |
| [O-][s+]1nc(O)cc1-n1ncc2cc(OCc3ccccc3)ccc21 (centres unmarked) [Example 26] | – | 1000 to 5000 |
| [O-][s+]1nc(O)cc1-n1cc(-c2ccccc2-c2ccccc2)cn1 (centres unmarked) [Example 328] | 1000 to 5000 | – |
| [O-][s+]1nc(O)cc1-n1cc(-c2cnccn2)cn1 (centres unmarked) [Example 407] | 1000 to 5000 | – |
| [O-][s+]1nc(O)cc1-n1cc2c(n1)CN(CC1CCCCC1)C2 (single isomer, unassigned) [Example 275] | – | 1000 to 5000 |
| COc1cc2c(cnn2-c2cc(O)n[s+]2[O-])cc1Br (centres unmarked) [Example 69] | – | 1000 to 5000 |
| COc1cc(-c2cnn(-c3cc(O)n[s+]3[O-])c2)cc(OC)c1OC (centres unmarked) [Example 390] | 1000 to 5000 | – |
| CN1CCCCOc2cc(-c3ccc4c(cnn4-c4cc(O)n[s+]4[O-])c3)cnc21 (centres unmarked) [Example 205] | – | < 1000 |
